Reference: patent US11427558B1, “Indazoles and azaindazoles as LRRK2 inhibitors” (ESCAPE Bio, Inc., priority 2019, dated 2022)

Assays:
[1] = biological target: Recombinant G2019S-LRRK2 protein (Homo sapiens (Human), UniProt Q5S007, G2019S); assay: LRRK2 kinase activity, LanthaScreen TR-FRET assay (G2019S); format: biochemical; settings: LRRKtide 400 nM, 25 μM ATP, 60 min
Method in brief: (§1)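 Recombinant human wild-type or G2019S LRRK2 phosphorylated fluorescein-labelled LRRKtide (ERM-based) with ATP and serially diluted compound for 60 min at room temperature.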

[2] = biological target: Recombinant wild type LRRK2 protein (Homo sapiens (Human), UniProt Q5S007); assay: LRRK2 kinase activity, LanthaScreen TR-FRET assay (wild type); format: biochemical; settings: LRRKtide 400 nM, 25 μM ATP, 60 min; read-out: LRRK2 WT IC50
Chain of Recombinant wild type LRRK2 protein (Q5S007 whole entry): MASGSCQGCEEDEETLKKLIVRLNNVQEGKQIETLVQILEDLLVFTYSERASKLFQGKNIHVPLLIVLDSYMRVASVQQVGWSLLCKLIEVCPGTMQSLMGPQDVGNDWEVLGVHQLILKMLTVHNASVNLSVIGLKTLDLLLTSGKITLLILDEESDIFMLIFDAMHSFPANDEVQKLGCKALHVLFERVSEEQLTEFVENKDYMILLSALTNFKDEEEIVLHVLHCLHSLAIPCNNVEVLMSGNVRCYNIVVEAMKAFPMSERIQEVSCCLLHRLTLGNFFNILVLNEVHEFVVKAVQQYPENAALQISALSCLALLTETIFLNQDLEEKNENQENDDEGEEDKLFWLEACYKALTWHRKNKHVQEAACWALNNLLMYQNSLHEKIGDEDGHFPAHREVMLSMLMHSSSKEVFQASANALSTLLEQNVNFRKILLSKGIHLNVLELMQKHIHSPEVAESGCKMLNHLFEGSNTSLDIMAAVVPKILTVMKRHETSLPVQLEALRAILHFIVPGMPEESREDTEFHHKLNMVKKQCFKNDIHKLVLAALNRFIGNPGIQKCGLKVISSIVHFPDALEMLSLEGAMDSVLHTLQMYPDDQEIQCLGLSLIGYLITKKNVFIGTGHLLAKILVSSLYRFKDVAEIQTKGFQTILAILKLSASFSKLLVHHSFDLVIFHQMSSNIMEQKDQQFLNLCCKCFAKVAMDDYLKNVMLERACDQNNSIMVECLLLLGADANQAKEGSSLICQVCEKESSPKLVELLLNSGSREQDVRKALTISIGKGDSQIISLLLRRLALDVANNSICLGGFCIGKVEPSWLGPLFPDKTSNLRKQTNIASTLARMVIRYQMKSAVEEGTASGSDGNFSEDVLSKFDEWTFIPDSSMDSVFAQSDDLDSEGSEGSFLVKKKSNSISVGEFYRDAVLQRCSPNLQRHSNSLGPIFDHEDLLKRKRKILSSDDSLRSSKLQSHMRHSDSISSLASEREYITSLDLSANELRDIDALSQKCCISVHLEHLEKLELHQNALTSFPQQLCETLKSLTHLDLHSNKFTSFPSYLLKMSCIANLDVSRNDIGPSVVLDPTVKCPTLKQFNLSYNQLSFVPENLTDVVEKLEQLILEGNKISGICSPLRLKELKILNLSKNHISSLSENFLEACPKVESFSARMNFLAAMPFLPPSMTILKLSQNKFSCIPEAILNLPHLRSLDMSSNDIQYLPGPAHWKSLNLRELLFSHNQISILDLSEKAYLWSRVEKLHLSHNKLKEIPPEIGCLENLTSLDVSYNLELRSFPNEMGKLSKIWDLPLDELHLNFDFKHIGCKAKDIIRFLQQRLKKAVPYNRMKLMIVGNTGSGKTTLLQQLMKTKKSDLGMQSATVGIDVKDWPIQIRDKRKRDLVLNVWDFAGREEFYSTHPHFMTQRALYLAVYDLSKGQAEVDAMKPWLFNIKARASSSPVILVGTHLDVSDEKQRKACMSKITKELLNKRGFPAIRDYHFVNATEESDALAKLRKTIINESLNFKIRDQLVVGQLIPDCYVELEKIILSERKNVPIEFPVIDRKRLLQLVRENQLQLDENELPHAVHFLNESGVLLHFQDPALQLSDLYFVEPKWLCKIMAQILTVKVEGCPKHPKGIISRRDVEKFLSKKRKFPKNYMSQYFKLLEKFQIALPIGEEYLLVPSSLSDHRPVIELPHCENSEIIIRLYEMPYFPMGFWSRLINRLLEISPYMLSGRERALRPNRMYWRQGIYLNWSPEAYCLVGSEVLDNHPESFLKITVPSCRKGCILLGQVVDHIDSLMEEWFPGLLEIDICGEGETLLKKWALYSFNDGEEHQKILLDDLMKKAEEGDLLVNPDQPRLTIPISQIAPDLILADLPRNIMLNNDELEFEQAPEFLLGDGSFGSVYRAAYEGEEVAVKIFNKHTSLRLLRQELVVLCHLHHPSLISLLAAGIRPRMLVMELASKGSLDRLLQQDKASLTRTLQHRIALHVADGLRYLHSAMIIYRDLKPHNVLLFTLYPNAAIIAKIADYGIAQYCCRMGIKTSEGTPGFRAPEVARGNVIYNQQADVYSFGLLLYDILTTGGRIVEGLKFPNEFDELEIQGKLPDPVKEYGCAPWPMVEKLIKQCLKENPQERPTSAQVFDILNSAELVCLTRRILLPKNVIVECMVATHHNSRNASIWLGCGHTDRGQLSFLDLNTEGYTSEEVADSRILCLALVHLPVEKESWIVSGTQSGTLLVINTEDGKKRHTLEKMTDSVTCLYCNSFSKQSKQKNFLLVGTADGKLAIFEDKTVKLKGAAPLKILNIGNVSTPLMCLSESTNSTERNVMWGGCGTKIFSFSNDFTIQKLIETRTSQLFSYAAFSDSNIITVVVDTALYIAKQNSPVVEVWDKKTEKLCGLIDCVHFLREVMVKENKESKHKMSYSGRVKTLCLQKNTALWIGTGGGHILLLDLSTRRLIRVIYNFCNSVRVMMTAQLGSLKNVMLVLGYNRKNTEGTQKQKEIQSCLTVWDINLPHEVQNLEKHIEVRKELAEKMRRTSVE
Method in brief: as §1

Chain of Recombinant G2019S-LRRK2 protein (Q5S007 whole entry G2019S): as the sequence (Q5S007 whole entry) above, with G2019S counted along it

Row | SMILES | IC50 [1] [µM] | IC50 [2] [µM]
1 | Cc1cc(C#N)cnc1C(=O)Nc1ccc2[nH]nc(-c3ccc(=O)n(C)c3)c2c1 [Example 151, 5-Cyano-3-methyl-N-(3-(1-methyl-6-oxo-1,6-dihydropyridin-3-yl)-1H-indazol-5-yl)picolinamide] | < 0.1 | 0.1 to 1
2 | Cc1cc(C#N)cnc1C(=O)Nc1ccc2[nH]nc(-c3ccn(C)c(=O)c3)c2c1 [Example 152, 5-cyano-3-methyl-N-(3-(1-methyl-2-oxo-1,2-dihydropyridin-4-yl)-1H-indazol-5-yl)picolinamide] | 0.1 to 1 | 1 to 10
3 | Cc1cc(C#N)cnc1C(=O)Nc1ccc2[nH]nc(-c3ccn(C)n3)c2c1 [Example 153, 5-Cyano-3-methyl-N-(3-(1-methyl-1H-pyrazol-3-yl)-1H-indazol-5-yl)picolinamide] | 0.1 to 1 | 1 to 10
4 | N#Cc1cnc(C(=O)Nc2ccc3[nH]nc(-c4ccoc4)c3c2)c(O)c1 [Example 154, 5-Cyano-N-(3-(furan-3-yl)-1H-indazol-5-yl)-3-hydroxypicolinamide] | < 0.1 | 0.1 to 1
5 | Cc1cc(C#N)cnc1C(=O)Nc1cc2c(-c3ccoc3)n[nH]c2cn1 [Example 155] | < 0.1 | 1 to 10
6 | Cc1cc(C#N)cnc1C(=O)Nc1ccc2[nH]nc(-c3cscn3)c2c1 [Example 156, 5-Cyano-3-methyl-N-(3-(thiazol-4-yl)-1H-indazol-5-yl)picolinamide] | 0.1 to 1 | 0.1 to 1
7 | Cc1c(C#N)cnc(C(=O)Nc2ccc3[nH]nc(-c4cnn(C(F)F)c4)c3c2)c1C [Example 157, 5-Cyano-N-(3-(1-(difluoromethyl)-1H-pyrazol-4-yl)-1H-indazol-5-yl)-3,4-dimethylpicolinamide] | < 0.1 | < 0.1
8 | Cc1c(C#N)cnc(C(=O)Nc2ccc3[nH]nc(-c4cnco4)c3c2)c1C [Example 158, 5-Cyano-3,4-dimethyl-N-(3-(oxazol-5-yl)-1H-indazol-5-yl)picolinamide] | < 0.1 | < 0.1
9 | COc1cc(-c2n[nH]c3ccc(NC(=O)c4ncc(C#N)c(C)c4C)cc23)ccn1 [Example 159, 5-Cyano-N-(3-(2-methoxypyridin-4-yl)-1H-indazol-5-yl)-3,4-dimethylpicolinamide] | < 0.1 | < 0.1
10 | Cc1cc(C#N)cnc1C(=O)Nc1ccc2[nH]nc(-c3cnsc3)c2c1 [Example 160, 5-Cyano-N-(3-(isothiazol-4-yl)-1H-indazol-5-yl)-3-methylpicolinamide] | < 0.1 | < 0.1
11 | Cc1cc(C#N)cnc1C(=O)Nc1ncc2[nH]nc(-c3ccoc3)c2n1 [Example 161, 5-Cyano-N-(3-(furan-3-yl)-1H-pyrazolo[4,3-d]pyrimidin-5-yl)-3-methylpicolinamide] | 0.1 to 1 | 1 to 10
12 | Cc1cc(C#N)nnc1C(=O)Nc1ccc2[nH]nc(-c3ccoc3)c2c1 [Example 162, 6-Cyano-N-(3-(furan-3-yl)-1H-indazol-5-yl)-4-methylpyridazine-3-carboxamide] | < 0.1 | 0.1 to 1
13 | N#Cc1ccc(F)c(C(=O)Nc2ccc3[nH]nc(-c4cnn(C(F)F)c4)c3c2)c1F [Example 163, 3-Cyano-N-(3-(1-(difluoromethyl)-1H-pyrazol-4-yl)-1H-indazol-5-yl)-2,6-difluorobenzamide] | < 0.1 | < 0.1
14 | COc1c(C#N)cccc1C(=O)Nc1ccc2[nH]nc(-c3cnn(C(F)F)c3)c2c1 [Example 164, 3-Cyano-N-(3-(1-(difluoromethyl)-1H-pyrazol-4-yl)-1H-indazol-5-yl)-2-methoxybenzamide] | < 0.1 | < 0.1
15 | N#Cc1cccc(C(=O)Nc2ccc3[nH]nc(-c4cnn(C(F)F)c4)c3c2)c1F [Example 167, 3-Cyano-N-(3-(1-(difluoromethyl)-1H-pyrazol-4-yl)-1H-indazol-5-yl)-2-fluorobenzamide] | < 0.1 | < 0.1
16 | Cc1c(C#N)cnc(C(=O)Nc2ccc3[nH]nc(-c4cnoc4)c3c2)c1C [Example 168, 5-Cyano-N-(3-(isoxazol-4-yl)-1H-indazol-5-yl)-3,4-dimethylpicolinamide] | < 0.1 | < 0.1
17 | Cc1c(C#N)cnc(C(=O)Nc2ccc3[nH]nc(-c4cnn(C(F)(F)F)c4)c3c2)c1C [Example 169, 5-Cyano-3,4-dimethyl-N-(3-(1-(trifluoromethyl)-1H-pyrazol-4-yl)-1H-indazol-5-yl)picolinamide] | < 0.1 | < 0.1
18 | COc1cc(-c2n[nH]c3ccc(NC(=O)c4ccnc(C#N)c4F)cc23)ccn1 [Example 170, 2-Cyano-3-fluoro-N-(3-(2-methoxypyridin-4-yl)-1H-indazol-5-yl)isonicotinamide] | < 0.1 | 0.1 to 1
19 | Cc1c(C#N)cnc(C(=O)Nc2ccc3[nH]nc(-c4cncc(Cl)c4)c3c2)c1C [Example 171, N-(3-(5-Chloropyridin-3-yl)-1H-indazol-5-yl)-5-cyano-3,4-dimethylpicolinamide] | < 0.1 | < 0.1
20 | Cc1c(C#N)cnc(C(=O)Nc2ccc3[nH]nc(-c4cnn(CF)c4)c3c2)c1C [Example 172, 5-Cyano-N-(3-(1-(fluoromethyl)-1H-pyrazol-4-yl)-1H-indazol-5-yl)-3,4-dimethylpicolinamide] | < 0.1 | < 0.1
21 | N#Cc1cccc(C(=O)Nc2ccc3[nH]nc(-c4ccoc4)c3c2)c1C(F)(F)F [Example 173, 3-Cyano-N-(3-(furan-3-yl)-1H-indazol-5-yl)-2-(trifluoromethyl)benzamide] | < 0.1 | < 0.1
22 | Cc1ncc(-c2n[nH]c3ccc(NC(=O)c4ncc(C#N)c(C)c4C)cc23)o1 [Example 174, 5-Cyano-3,4-dimethyl-N-(3-(2-methyloxazol-5-yl)-1H-indazol-5-yl)picolinamide] | < 0.1 | < 0.1
23 | Cc1c(C(=O)Nc2ccc3[nH]nc(-c4cnn(C(F)F)c4)c3c2)nc(Cl)c(C#N)c1C [Example 175, 6-Chloro-5-cyano-N-(3-(1-(difluoromethyl)-1H-pyrazol-4-yl)-1H-indazol-5-yl)-3,4-dimethylpicolinamide] | < 0.1 | < 0.1
24 | COc1c(C#N)cccc1C(=O)Nc1ccc2[nH]nc(-c3cnco3)c2c1 [Example 176, 3-Cyano-2-methoxy-N-(3-(oxazol-5-yl)-1H-indazol-5-yl)benzamide] | < 0.1 | < 0.1
25 | Cc1ccc(C#N)c(F)c1C(=O)Nc1ccc2[nH]nc(-c3cnn(C(F)F)c3)c2c1 [Example 177, 3-Cyano-N-(3-(1-(difluoromethyl)-1H-pyrazol-4-yl)-1H-indazol-5-yl)-2-fluoro-6-methylbenzamide] | < 0.1 | < 0.1
26 | COc1cc(-c2n[nH]c3ccc(NC(=O)c4ncc(C#N)cc4C(F)(F)F)cc23)ccn1 [Example 178, 5-Cyano-N-(3-(2-methoxypyridin-4-yl)-1H-indazol-5-yl)-3-(trifluoromethyl)picolinamide] | < 0.1 | < 0.1
27 | Cc1c(C(=O)Nc2ccc3[nH]nc(-c4ccoc4)c3c2)noc1C#N [Example 179, 5-Cyano-N-(3-(furan-3-yl)-1H-indazol-5-yl)-4-methylisoxazole-3-carboxamide] | < 0.1 | < 0.1
